Measurements as given in publication PMC10948870, “De novo antioxidant peptide design via machine learning and DFT studies” (Scientific Reports, 2024).

Key:
red blood cells (RBCs) = assay: Hemolysis assay; type: cell-based, human; settings: 0.1% SDS + distilled water; 4 h room temperature; absorbance 450 nm
Description: The hemolysis test was performed as standard protocol. A 1.5 mL heparin blood sample was obtained from a healthy volunteer in our laboratory. The red blood cells (RBCs) were collected by centrifugation of blood samples at 3000 rpm for 15 min and then were washed three times with PBS. The RBC pellet was resuspended in a 10 mL phosphate-buffer solution (PBS). A 100 µL/well of different concentrations of peptides were added into a 96-well plate (2000 µg/mL, 1000 µg/mL, 500 µg/mL, 250 µg/mL, 125 µg/mL, 62.5 µg/mL, 31.25 µg/mL, 15.62 µg/mL, 7.8 µg/mL). For positive hemolysis control 100 µL/well of 0.1% sodium dodecyl sulfate and distilled water, and for negative hemolysis control 100 µL/well of PBS were added into the appropriated wells. After that, 100 µL RBC suspension was added into all the wells. The plate was incubated at room temperature for 4 h. Then the 100 µL supernatant of each well was carefully transferred to a new 96-well plate. The solution absorbance was investigated by a UV–Vis instrument at 450 nm.

[1] = Hydroxyl radical scavenging activity assay; type: biochemical; settings: positive control, 0.5 mM solution; UV-Vis 510 nm
Text: Hydroxyl radical is one of the strong reactive oxygen species in biological systems that react with the unsaturated fatty acid of phospholipids of the cell membrane and cause cell damage[36]–[38]. To assess the efficacy of peptides in countering hydroxyl radicals, we subjected them to a hydroxyl radical-scavenging activity assay, indicating their scavenging potential across a range of concentrations. The method for preparing the test samples, reagents, and control samples for the hydroxyl scavenging activity assay is as follows: initially, peptide samples at 10 mg/mL concentration were dissolved in ethanol, and subsequently, diluted concentrations of 2, 4, 6, and 8 mg/L were obtained from this solution. The assay reagent includes 6 mM hydrogen peroxide and 6 mM ferrous sulfate in ethanol. A solution of ascorbic acid with 0.5 mM concentration has been prepared as a positive control and a solution without the peptide sample is considered as negative control. […] After 30 min, the UV–Vis absorbance was determined at 510 nm. The determination of hydroxyl radical scavenging activity for the peptide samples was executed as follows:2 Hydroxyl radical scavenging activity%=A0-A1/A0×100, where A0 is the absorbance of the negative control (solution without the peptide sample) and A1 is the absorbance of the peptide samples.

[2] = DPPH scavenging activity assay; type: biochemical; settings: compared among six synthesized peptides and with ascorbic acid 0.5 mM
Description: A straightforward and expeditious approach for quantifying the antioxidant activity of antioxidants involves employing the 2,2-diphenyl-1-picrylhydrazyl (DPPH) assay, a spectrophotometric technique[36]–[38]. Preparation of the test sample, reagent, and control sample in the DPPH assay is as follows: peptide samples with a concentration of 10 mg/mL were prepared in ethanol and then were diluted in 2, 4, 6, and 8 mg/L concentrations. The DPPH solution is prepared with a concentration of 0.02% (w/v) in methanol. A solution of 0.5 mM ascorbic acid has been prepared as a positive control, and methanol is considered as the negative control sample. The peptide sample (250 μL) with DPPH solution (250 μL) in ethanol (1.0 mL) was mixed and stirred in the dark for 30 min at room temperature. The solutions were analyzed using a UV–Vis instrument (Varian, Cary 100) at 517 nm. The calculation of antioxidant activity percentage is reported as the following equation:1 DPPH scavenging activity%=A0-A1/A0×100.
In Eq. (1), A0 is the absorbance of the negative control (methanol) and A1 is the optical absorbance of the peptide samples.

CCCCCCCCCCCCOS(=O)(=O)[O-].[Na+] [SDS, sodium dodecyl sulfate]
Hemolysis, OD value of positive control (red blood cells (RBCs)): 2.21

O=C1O[C@H]([C@@H](O)CO)C(O)=C1O [ascorbic acid]
Hydroxyl radical scavenging activity [1]: 93.9%

LHHWY [GP12, ML-generated antioxidant peptide LHHWY, synthesized]
DPPH free radical scavenging activity, in words [2]: highest free radical scavenging activity

YWHW [GP9, ML-generated antioxidant peptide YWHW, synthesized]
DPPH free radical scavenging activity, in words [2]: highest free radical scavenging activity

YWYHF [GP10, ML-generated antioxidant peptide YWYHF, synthesized]
DPPH free radical scavenging activity, in words [2]: highest free radical scavenging activity
